Reference: patent publication US20140051631A1, “PHARMACEUTICAL COMPOSITION COMPRISING TPO OR AN AGONIST OF THE TPO RECEPTOR” (priority 2012, published 2014)

Key:
DNA-PK = biological target: T1, DNA-PK (Mus musculus, UniProt P97313); assay: γH2AX foci resolution in LSK-CD34− cultures with DNA-PK inhibitor; format: cell-based, mice; settings: 10 μm NU7441 in TPO-containing cultures of LSK-CD34− cells, IR 2 Gy, 24 h
T1 construct: LSK and LSK-CD34^− cells were sorted using ARIAS cell sorter; endogenous in cells; host or cells: primary mouse bone-marrow LSK-CD34- cells
Text: (§1) Mpl^−/− backcrossed on C57BL/6 (CD45.2) background (kindly provided by Dr F. de Sauvage) were described previously (Petit-Cocault et al., 2007). C57BL/6J (CD45.2 and CD45.1) and CB17-Prkdc-scid mice were purchased from Charles River and Harlan laboratories, respectively. Unless otherwise specified, mice of 8-10 weeks of age were used. Lin^− progenitors were isolated from BM and stained as described (Saulnier et al., 2012). LSK and LSK-CD34^− cells were sorted using ARIAS cell sorter (BD Franklin Lakes, N.J., USA) and cultured in StemSpan SFEM (StemCell Technologies) supplemented with recombinant Flt3-Ligand (100 ng/ml), interleukin-3 (IL-3, 10 ng/ml), interleukin-6 (IL-6, 10 ng/ml), Stem cell factor (SCF, 100 ng/ml), and with or without 50 ng/ml TPO (complete medium), all from Peprotech (Rocky Hill, N.J., USA). […] For competitive reconstitution experiments, 3000 LSKs sorted from C57BL/6 CD45.1 mice subjected or not to TBI (2 Gy) and TPO injection (8 μg/kg body weight), were injected in lethally irradiated (10 Gy) C57BL/6 CD45.2 congenic mice, together with 3×10^5 BM CD45.2 competitor cells and analyzed 4 months later.
(§2) Immunofluorescence was performed as described (Pawlikowska et al., 2010) with cells cytospun on glass slides. […] Pictures were analyzed using ImageJ software.

LSKs [1] = assay: γH2AX foci / DNA break disappearance after IR in vitro in cytokine cultures; format: cell-based, mice; settings: removal of the cytokine from culture medium
Text: as §1, §2

LSKs [2] = assay: Competitive reconstitution with LSKs from irradiated donor mice; format: in vivo
Text: as §1, with “USA). UT7-Mpl cells (Hamelin et al., 2006) were cultured in α-minimal essential medium (α-MEM) supplemented with 10% FCS and 2 U/ml erythropoietin (EPO, Boehringer Ingelheim).” for “USA).”

LSK and LSK-CD34^− cells [3] = assay: LSK and LSK-CD34− proportions, cell cycle status and cell cycle regulators 5 h after TBI; format: in vivo, mice
Text: (§3) Mpl^−/− backcrossed on C57BL/6 (CD45.2) background (kindly provided by Dr F. de Sauvage) were described previously (Petit-Cocault et al., 2007). C57BL/6J (CD45.2 and CD45.1) and CB17-Prkdc-scid mice were purchased from Charles River and Harlan laboratories, respectively. Unless otherwise specified, mice of 8-10 weeks of age were used. Lin^− progenitors were isolated from BM and stained as described (Saulnier et al., 2012). LSK and LSK-CD34^− cells were sorted using ARIAS cell sorter (BD Franklin Lakes, N.J., USA) and cultured in StemSpan SFEM (StemCell Technologies) supplemented with recombinant Flt3-Ligand (100 ng/ml), interleukin-3 (IL-3, 10 ng/ml), interleukin-6 (IL-6, 10 ng/ml), Stem cell factor (SCF, 100 ng/ml), and with or without 50 ng/ml TPO (complete medium), all from Peprotech (Rocky Hill, N.J., USA). UT7-Mpl cells (Hamelin et al., 2006) were cultured in α-minimal essential medium (α-MEM) supplemented with 10% FCS and 2 U/ml erythropoietin (EPO, Boehringer Ingelheim). Cell IR in vitro were carried-out in a Biobeam 8000 irradiator (Gamma Service Medical GmbH, Leipzig, Germany). Mice TBI were performed in cesium irradiator IBL 637 (Curie Institute, Paris). Etoposide and doxorubicine were purchased from sigma (Saint-Louis, Mo., USA), drugs were injected intraperitoneally at the indicated doses. For competitive reconstitution experiments, 3000 LSKs sorted from C57BL/6 CD45.1 mice subjected or not to TBI (2 Gy) and TPO injection (8 μg/kg body weight), were injected in lethally irradiated (10 Gy) C57BL/6 CD45.2 congenic mice, together with 3×10^5 BM CD45.2 competitor cells and analyzed 4 months later.

Rad51 foci = assay: Homologous recombination markers: Rad51 foci and repair of replicative-stress DSBs; format: cell-based
WT HSPCs = assay: Chromosomal rearrangements in HSPCs irradiated in vitro; format: cell-based, mice; settings: WT HSPCs irradiated in vitro (2 Gy), cultured in the absence of TPO
Text: as §1
Chromosomal aberration analysis in metaphase spreads were performed as described previously (Pawlikowska et al., 2010). […] Fluorescence was analyzed with a Zeiss Axioplan epifluorescent microscope and ISIS/M-FISH imaging system (MetaSystems).

UT7-Mpl cells = assay: DNA damage and p-DNA-PK foci in UT7-Mpl cells after IR; format: cell-based, human
Text: as §3
(§4) Immunofluorescence was performed as described (Pawlikowska et al., 2010) with cells cytospun on glass slides. Slides were visualized with Leica DMI 6000 (Wetzlar, Germany) microscope equipped with a 63×1.6 oil-immersion objective and a coupled device camera MicroMAX (Princeton Instruments Trenton, N.J., USA). Pictures were analyzed using ImageJ software.

LSKs [4] = assay: γH2AX foci in LSKs of mice after TBI or chemotherapeutic drug injection; format: in vivo; settings: WT mice, vs PBS
Text: as §3, §4

LSKs from SCID mice = assay: γH2AX foci in LSKs from SCID mice after TBI; format: in vivo; settings: SCID mice (DNA-PKcs mutation), TPO 8 μg/kg, TBI 2 Gy, 16 h
Text: as §1, §2

LSK and LSK-CD34^− cells [5] = assay: Persistent DNA damage (γH2AX) in LSK and LSK-CD34− cells 3 months after TBI; format: in vivo, mice; settings: TPO prior to TBI, analyzed 3 months later
Text: as §1, §2

Lin^− progenitors = assay: Chromosomal aberrations in metaphases from Lin− progenitors after TBI in vivo; set-up: species or system mice
Procedure: Fluorescence was analyzed with a Zeiss Axioplan epifluorescent microscope and ISIS/M-FISH imaging system (MetaSystems).

[6] = in the absence of TPO, compared to TPO-treated cells, IR 2 Gy

O=c1cc(N2CCOCC2)oc2c(-c3cccc4c3sc3ccccc34)cccc12 [NU7441]
TPO-improved γH2AX foci resolution (DNA-PK): completely abolished

Stem cell factor [SCF, reference compound]
kinetics of IR-induced γH2AX foci or DNA break disappearance (LSKs [1]): did not impair

Thrombopoietin [TPO]
increase in donor CD45.1 chimerism in the peripheral blood and in BM LSK cells (LSKs [2]; 4 months after transplantation, TPO vs PBS before TBI): 3- to 5 fold
donor chimerism, difference between the TPO and PBS groups (LSKs [2]; 6 weeks posttransplantation): No difference
proportions of LSK and LSK-CD34− cells recovered from BM (LSK and LSK-CD34^− cells [3]; 5 h after TBI, PBS vs TPO-treated mice): not significantly different
cell cycle status of LSK or LSK-CD34− cells (LSK and LSK-CD34^− cells [3]; TPO treatment pre-TBI, compared to PBS): did not alter
expression of cell cycle regulators p57kip2 and p27Kip1 (LSK and LSK-CD34^− cells [3]; after TPO injection and TBI): remained unchanged
repair of DSBs induced by replicative stresses (Rad51 foci; camptotecin and hydroxyurea): could not improve
IR-induced Rad51 foci formation (Rad51 foci; functional marker of HR): did not increase
chromosomal rearrangements (WT HSPCs): high numbers
TPO action on IR-induced DNA damage in human cell line (UT7-Mpl cells; UT7-Mpl grown with EPO or TPO): could also act
number of UT7-Mpl cells showing IR-induced pSer2056- and pT2609-DNA-PK foci (UT7-Mpl cells; [6]): significantly decreased
p-DNA-PK foci number in positively stained cells (UT7-Mpl cells; [6]): greatly reduced
total DNA-PK signal (UT7-Mpl cells; upon IR or TPO treatment): did not change
number of LSKs displaying γH2AX foci (LSKs [4]; TPO 8 μg/kg injected just before 2 Gy TBI, at 5 h): reduced significantly
number of LSKs displaying γH2AX foci (LSKs [4]; TPO injected just before doxorubicine (3 or 10 mg/kg), at 24 h): reduced significantly
number of LSKs displaying γH2AX foci (LSKs [4]; TPO injected just before etoposide (4 mg/kg), at 24 h): reduced significantly
TBI-induced LSK γH2AX foci formation (LSKs from SCID mice): did not decrease
number and cycle of HSCs and HSPCs (LSK and LSK-CD34^− cells [5]): no effect
persistent DNA damage (γH2AX foci) in HSCs and HSPCs (LSK and LSK-CD34^− cells [5]): almost completely abolished
chromosomal aberrations in metaphases from progenitor cells (Lin^− progenitors; 3 months from TBI, TPO-injected mice): greatly reduced
genomic instability (genomic rearrangements) transmitted to progenitor progeny of LSKs (Lin^− progenitors; 4 months after reconstitution of lethally irradiated recipients, TPO injection before TBI): significantly reduced

B1: Flt3-ligand: recombinant cytokine of the culture medium (100 ng/ml) (protein, UniProt P49771 27-235, looked up)
Fms-related tyrosine kinase 3 …: TQDCSFQHSPISSDFAVKIRELSDYLLQDYPVTVASNLQDEELCGGLWRLVLAQRWMERLKTVAGSKMQGLLERVNTEIHFVTKCAFQPPPSCLRFVQTNISRLLQETSEQLVALKPWITRQNFSRCLELQCQPDSSTLPPPWSPRPLEATAPTAPQPPLLLLLLLPVGLLLLAAAWCLHWQRTRRRTPRPGEQVPPVPSPQDLLLVEH
kinetics of IR-induced γH2AX foci or DNA break disappearance (LSKs [1]): did not impair
